Experimental data as given in patent US8507489B2, “Bicyclic triazoles as protein kinase modulators” (SGX Pharmaceuticals, Inc., priority 2006, dated 2013).
pIC50: −log10 of the molar value.

How the values were obtained:
ABL1 Y253F = ABL1 Y253F (Homo sapiens, UniProt P00519, Y253F); assay: SelectScreen Kinase Profiling ABL1 Y253F; type: biochemical
Text: (§1) SelectScreen™ is a trademark screening assay protocol for kinases developed by Invitrogen Corporation, Madison, Wis. Details on assay conditions can be found on the company's website.

AURKB (Aurora B) = AURKB (Aurora B) (Homo sapiens, UniProt Q96GD4); assay: SelectScreen Kinase Profiling AURKB; type: biochemical
Sequence of AURKB (Aurora B) (Q96GD4 whole entry): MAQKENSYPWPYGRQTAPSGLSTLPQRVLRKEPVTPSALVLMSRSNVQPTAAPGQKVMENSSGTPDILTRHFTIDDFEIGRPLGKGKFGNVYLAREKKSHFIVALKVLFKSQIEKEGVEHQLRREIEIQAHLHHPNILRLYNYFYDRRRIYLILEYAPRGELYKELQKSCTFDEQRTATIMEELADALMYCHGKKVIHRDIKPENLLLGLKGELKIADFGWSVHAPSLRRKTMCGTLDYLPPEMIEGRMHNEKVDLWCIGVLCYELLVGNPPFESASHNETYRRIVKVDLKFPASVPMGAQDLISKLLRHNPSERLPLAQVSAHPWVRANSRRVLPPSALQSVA
Text: as §1

BRAF V599E = BRAF V599E (Homo sapiens, UniProt P15056, V600E); assay: SelectScreen Kinase Profiling BRAF V599E; type: biochemical
Sequence of BRAF V599E (P15056 416-766 V600E limits assumed): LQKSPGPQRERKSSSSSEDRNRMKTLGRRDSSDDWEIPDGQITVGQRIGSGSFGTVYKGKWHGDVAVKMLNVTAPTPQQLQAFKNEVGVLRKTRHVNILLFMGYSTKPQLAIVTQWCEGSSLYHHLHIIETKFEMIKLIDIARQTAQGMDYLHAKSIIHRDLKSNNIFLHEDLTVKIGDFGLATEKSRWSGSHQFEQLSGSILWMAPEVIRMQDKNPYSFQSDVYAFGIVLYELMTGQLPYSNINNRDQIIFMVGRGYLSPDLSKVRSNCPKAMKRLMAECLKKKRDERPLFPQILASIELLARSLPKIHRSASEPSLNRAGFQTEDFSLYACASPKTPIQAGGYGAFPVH
Text: as §1

EPHA2 = EPHA2 (Homo sapiens, UniProt P29317); assay: SelectScreen Kinase Profiling EPHA2; type: biochemical
Text: as §1

FLT3 D835Y = FLT3 D835Y (Homo sapiens, UniProt P36888, D835Y); assay: SelectScreen Kinase Profiling FLT3 D835Y; type: biochemical
Text: as §1

HCK = HCK (Homo sapiens, UniProt P08631); assay: SelectScreen Kinase Profiling HCK; type: biochemical
Sequence of HCK (P08631 whole entry): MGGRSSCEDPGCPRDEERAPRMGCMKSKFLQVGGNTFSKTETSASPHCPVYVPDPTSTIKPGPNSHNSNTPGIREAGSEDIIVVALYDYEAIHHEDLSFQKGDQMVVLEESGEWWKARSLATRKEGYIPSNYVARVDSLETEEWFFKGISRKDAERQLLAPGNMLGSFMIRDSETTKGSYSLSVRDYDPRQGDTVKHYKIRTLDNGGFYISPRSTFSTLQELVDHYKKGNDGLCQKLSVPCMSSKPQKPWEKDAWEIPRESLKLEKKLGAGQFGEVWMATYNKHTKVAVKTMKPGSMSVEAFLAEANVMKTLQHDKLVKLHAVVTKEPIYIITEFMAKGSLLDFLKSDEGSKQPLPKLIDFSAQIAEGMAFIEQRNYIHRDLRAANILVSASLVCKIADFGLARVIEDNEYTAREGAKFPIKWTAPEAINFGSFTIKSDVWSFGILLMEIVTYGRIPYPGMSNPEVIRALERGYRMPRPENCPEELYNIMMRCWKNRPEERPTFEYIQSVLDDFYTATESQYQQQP
Text: as §1

MAP4K4 (HGK) = MAP4K4 (HGK) (Homo sapiens, UniProt O95819); assay: SelectScreen Kinase Profiling MAP4K4; type: biochemical
Sequence of MAP4K4 (HGK) (O95819 whole entry): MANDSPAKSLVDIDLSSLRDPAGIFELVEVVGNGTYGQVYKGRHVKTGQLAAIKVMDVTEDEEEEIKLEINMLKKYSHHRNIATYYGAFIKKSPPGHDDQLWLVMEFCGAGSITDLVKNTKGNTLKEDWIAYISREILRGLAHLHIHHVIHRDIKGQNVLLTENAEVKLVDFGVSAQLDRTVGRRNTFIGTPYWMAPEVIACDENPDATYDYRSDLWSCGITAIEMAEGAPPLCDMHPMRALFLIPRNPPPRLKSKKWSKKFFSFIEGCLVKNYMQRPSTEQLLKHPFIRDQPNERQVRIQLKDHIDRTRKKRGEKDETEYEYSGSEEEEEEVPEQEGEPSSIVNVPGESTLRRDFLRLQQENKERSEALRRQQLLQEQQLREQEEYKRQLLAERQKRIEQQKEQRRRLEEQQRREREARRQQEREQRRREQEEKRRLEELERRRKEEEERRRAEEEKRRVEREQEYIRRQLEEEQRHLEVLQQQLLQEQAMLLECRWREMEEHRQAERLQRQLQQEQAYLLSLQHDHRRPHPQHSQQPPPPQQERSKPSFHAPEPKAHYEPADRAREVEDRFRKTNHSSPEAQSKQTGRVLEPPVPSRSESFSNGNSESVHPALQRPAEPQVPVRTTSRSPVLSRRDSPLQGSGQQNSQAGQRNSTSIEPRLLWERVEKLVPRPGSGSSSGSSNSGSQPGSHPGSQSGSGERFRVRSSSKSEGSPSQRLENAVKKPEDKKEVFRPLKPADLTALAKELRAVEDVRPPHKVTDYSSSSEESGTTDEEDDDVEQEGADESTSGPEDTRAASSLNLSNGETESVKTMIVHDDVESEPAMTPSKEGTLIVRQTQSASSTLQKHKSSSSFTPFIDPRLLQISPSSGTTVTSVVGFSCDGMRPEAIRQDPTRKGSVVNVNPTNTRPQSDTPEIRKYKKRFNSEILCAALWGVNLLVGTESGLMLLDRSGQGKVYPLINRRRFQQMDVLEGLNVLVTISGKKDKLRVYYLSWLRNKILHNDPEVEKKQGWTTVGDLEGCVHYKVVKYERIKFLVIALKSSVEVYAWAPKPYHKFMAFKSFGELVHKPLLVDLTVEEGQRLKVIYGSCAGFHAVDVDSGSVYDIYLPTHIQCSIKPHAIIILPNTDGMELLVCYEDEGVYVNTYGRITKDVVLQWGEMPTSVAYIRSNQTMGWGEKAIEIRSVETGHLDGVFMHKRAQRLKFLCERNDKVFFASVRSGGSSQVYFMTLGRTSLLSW
Text: as §1

MST1R (RON) = MST1R (RON) (Homo sapiens, UniProt Q04912); assay: SelectScreen Kinase Profiling MST1R; type: biochemical
Sequence of MST1R (RON) (Q04912 25-1400): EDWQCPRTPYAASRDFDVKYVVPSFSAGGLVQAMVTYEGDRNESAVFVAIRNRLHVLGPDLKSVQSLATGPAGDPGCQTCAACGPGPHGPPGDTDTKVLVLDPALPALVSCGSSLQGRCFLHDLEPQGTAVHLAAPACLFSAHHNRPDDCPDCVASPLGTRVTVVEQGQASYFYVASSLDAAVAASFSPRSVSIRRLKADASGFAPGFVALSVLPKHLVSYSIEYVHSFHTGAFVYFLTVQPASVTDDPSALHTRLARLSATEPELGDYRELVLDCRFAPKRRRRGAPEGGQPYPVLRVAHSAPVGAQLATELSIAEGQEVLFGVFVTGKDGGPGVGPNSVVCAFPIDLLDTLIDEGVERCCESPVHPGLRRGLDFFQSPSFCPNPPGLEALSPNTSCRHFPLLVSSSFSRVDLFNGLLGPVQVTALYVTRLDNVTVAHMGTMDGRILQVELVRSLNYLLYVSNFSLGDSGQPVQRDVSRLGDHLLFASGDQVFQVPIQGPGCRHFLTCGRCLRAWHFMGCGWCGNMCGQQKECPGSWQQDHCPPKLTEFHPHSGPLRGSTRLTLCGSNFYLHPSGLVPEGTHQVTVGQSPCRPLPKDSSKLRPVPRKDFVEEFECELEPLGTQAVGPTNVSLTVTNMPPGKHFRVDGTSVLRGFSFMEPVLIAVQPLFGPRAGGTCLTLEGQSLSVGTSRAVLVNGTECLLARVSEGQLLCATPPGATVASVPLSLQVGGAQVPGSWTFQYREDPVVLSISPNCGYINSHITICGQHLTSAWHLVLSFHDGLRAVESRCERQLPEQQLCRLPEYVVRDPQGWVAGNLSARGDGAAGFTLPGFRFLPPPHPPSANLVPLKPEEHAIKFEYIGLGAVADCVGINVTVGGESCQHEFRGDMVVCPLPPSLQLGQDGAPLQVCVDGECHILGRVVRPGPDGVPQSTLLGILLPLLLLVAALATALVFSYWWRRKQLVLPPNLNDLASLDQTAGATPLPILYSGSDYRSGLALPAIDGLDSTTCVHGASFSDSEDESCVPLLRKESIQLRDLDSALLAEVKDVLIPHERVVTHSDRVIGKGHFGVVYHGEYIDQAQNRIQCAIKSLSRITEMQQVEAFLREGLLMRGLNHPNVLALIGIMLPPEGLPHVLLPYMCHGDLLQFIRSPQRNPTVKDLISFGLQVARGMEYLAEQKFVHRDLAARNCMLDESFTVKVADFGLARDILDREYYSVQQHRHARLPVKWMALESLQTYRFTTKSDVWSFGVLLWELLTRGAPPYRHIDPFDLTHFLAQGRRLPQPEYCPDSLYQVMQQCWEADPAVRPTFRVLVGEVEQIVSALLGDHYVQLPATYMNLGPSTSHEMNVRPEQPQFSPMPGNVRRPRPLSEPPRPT
Text: as §1

PDK1 = PDK1 (Homo sapiens, UniProt O15530); assay: SelectScreen Kinase Profiling PDK1; type: biochemical
Sequence of PDK1 (O15530 whole entry): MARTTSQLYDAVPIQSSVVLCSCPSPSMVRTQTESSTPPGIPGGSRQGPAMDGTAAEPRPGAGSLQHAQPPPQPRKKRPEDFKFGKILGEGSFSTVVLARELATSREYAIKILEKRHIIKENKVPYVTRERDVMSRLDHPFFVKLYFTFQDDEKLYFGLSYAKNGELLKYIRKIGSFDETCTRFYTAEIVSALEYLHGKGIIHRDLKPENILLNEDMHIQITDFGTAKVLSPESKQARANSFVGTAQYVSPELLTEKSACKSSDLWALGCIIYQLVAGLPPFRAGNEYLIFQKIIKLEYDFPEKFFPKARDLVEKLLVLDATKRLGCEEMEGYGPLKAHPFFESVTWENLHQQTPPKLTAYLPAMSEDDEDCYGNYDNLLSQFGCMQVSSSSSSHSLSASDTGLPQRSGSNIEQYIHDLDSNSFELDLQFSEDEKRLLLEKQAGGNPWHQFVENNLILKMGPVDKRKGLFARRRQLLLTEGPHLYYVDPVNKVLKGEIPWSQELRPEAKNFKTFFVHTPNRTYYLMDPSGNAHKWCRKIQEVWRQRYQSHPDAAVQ
Text: as §1

PIM1 = PIM1 (Homo sapiens, UniProt P11309); assay: SelectScreen Kinase Profiling PIM1; type: biochemical
Sequence of PIM1 (P11309 whole entry): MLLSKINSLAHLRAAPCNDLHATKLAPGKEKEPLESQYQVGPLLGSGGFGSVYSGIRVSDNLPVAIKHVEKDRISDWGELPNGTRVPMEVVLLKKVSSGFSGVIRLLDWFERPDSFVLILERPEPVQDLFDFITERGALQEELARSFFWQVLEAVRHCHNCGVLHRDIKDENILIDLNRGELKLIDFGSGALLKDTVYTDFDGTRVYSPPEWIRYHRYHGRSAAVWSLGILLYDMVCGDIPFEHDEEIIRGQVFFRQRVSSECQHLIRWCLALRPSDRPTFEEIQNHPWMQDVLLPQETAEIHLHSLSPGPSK
Text: as §1

GTL16 tumors = assay: GTL16 tumor xenograft model, tumor growth; type: in vivo; conditions: last day of treatment, nude mice
Description: Female athymic nude mice (nu/nu from Harlan) were 6-8 weeks old with a body weight range of 18-22 g at the beginning of the study. The animals had free access to food and water throughout the study. The mice were housed on irradiated Alpha-Dri® Bed-O-Cobs® Laboratory Animal Bedding in static micro isolator caging on a 12-hour light cycle at 70-74° F. and 40-60% humidity. All procedures involving animals were conducted in compliance with the NIH Guide for the Care and Use of Laboratory Animals and all protocols were approved by an Internal Animal Care and Use Committee (IACUC).
Xenografts were initiated from GTL-16 tumor cells cultured and maintained by an internal Cell Biology Department. Each test mouse received a subcutaneous injection of 4×10^6 cells suspended in 100 μL of serum free RPMI media. Tumors were randomized into treatment groups on Day 5 when the average tumor size reached approximately 150 mm^3. Each dose groups contained n=5 mice. Tumor volume was calculated using the formula:
[formula] where w=width and l=length in mm of the tumor. Tumor weight may be estimated with the assumption that 1 mg is equivalent to 1 mm^3 of tumor volume. Tumor Growth Inhibition (TGI) Analysis
TGI was calculated from the difference between the mean tumor volumes of vehicle-treated and drug-treated mice, expressed as a percentage. % TGI=Mean Tumor Volumecontrol−Mean Tumor Volumedrug-treated×100 […] Tumor Volumecontrol
The MTV is defined as the mean tumor volume (MTV) for the number of animals, n, remaining in the study on that day.

c-MET = c-MET (Homo sapiens, UniProt P08581); assay: MET luminescence-based enzyme assay (Kinase-Glo); type: biochemical
Sequence of c-MET (P08581 1078-1345 limits assumed): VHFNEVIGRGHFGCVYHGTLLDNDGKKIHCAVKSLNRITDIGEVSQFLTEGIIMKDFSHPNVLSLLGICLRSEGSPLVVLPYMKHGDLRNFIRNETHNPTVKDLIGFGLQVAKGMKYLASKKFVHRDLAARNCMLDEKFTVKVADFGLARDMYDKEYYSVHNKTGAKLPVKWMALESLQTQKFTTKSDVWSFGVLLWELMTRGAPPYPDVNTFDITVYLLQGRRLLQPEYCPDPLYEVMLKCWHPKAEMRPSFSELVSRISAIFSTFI
Description: The subscript designates positive or negative controls. The Z′ score for a robust screening assay should be ≧0.50. The typical threshold=μ+−3*σ+. Any value that falls below the threshold was designated a “hit”.
MET Luminescence-Based Enzyme Assay
MET kinase (see below), Kinase-Glo™ (Promega Cat#V6712).
Negative controls contained 10 μM staurosporine.

FRAP1 (mTOR) = FRAP1 (mTOR) (Homo sapiens, UniProt P42345); assay: SelectScreen Kinase Profiling FRAP1; type: biochemical
Text: as §1

KDR (VEGFR2) = KDR (VEGFR2) (Homo sapiens, UniProt P35968); assay: SelectScreen Kinase Profiling KDR; type: biochemical
Text: as §1

MET (cMet) = MET (cMet) (Homo sapiens, UniProt P08581); assay: SelectScreen Kinase Profiling MET; type: biochemical
Text: as §1

MET M1250T = MET M1250T (Homo sapiens, UniProt P08581, M1250T); assay: SelectScreen Kinase Profiling MET M1250T; type: biochemical
Text: as §1

Row | SMILES | inhibition at 1 µM (ABL1 Y253F) | inhibition at 1 µM (AURKB (Aurora B)) | inhibition at 1 µM (BRAF V599E) | inhibition at 1 µM (EPHA2) | inhibition at 1 µM (FLT3 D835Y) | inhibition at 1 µM (HCK) | inhibition at 1 µM (MAP4K4 (HGK)) | inhibition at 1 µM (MST1R (RON)) | inhibition at 1 µM (PDK1) | inhibition at 1 µM (PIM1) | further results
1 | Cn1cc(-c2ccc3nnc(Sc4ccc5ncccc5c4)n3n2)cn1 [Compound 4, 6-[6-(1-Methyl-1H-pyrazol-4-yl)-[1,2,4]triazolo[4,3-b]pyridazin-3-ylsulfanyl]-quinoline] | 20% | 7% | 36% | -23% | 8% | 8% | -1% | 9% | 7% | 4% | decrease of mean tumor volume compared to vehicle-treated group (GTL16 tumors; 10 mg/kg PO Q12H, 14 consecutive days): 65%; decrease of mean tumor volume compared to vehicle-treated group (GTL16 tumors; 20 mg/kg PO Q12H, 14 consecutive days): 75%; decrease of mean tumor volume compared to vehicle-treated group (GTL16 tumors; 30 mg/kg PO Q12H, 14 consecutive days): 81%; decrease of mean tumor volume compared to vehicle-treated group (GTL16 tumors; 60 mg/kg PO Q24H, 14 consecutive days): 75%; decrease of mean tumor volume compared to vehicle-treated group (GTL16 tumors; 100 mg/kg PO Q12H, 14 consecutive days): 87%
2 | Cc1ccc2nnc(Sc3ccc4ncc(-c5cnn(C)c5)cc4c3)n2n1 [Compound 41, 3-(1-Methyl-1H-pyrazol-4-yl)-6-(6-methyl-[1,2,4]triazolo[4,3-b]pyridazin-3-ylsulfanyl)-quinoline] | 30% | 61% | 7% | 2% | 35% | 9% | 27% | 53% | 6% | 0% | pIC50 (c-MET): > 7.00; inhibition at 1 µM (FRAP1 (mTOR)): 0%; inhibition at 1 µM (KDR (VEGFR2)): 16%; inhibition at 1 µM (MET (cMet)): 98%; inhibition at 1 µM (MET M1250T): 89%; decrease of mean tumor volume compared to vehicle-treated group (GTL16 tumors; 1 mg/kg PO Q12H, 13 consecutive days): 42%; decrease of mean tumor volume compared to vehicle-treated group (GTL16 tumors; 3 mg/kg PO Q12H, 13 consecutive days): 67%; decrease of mean tumor volume compared to vehicle-treated group (GTL16 tumors; 10 mg/kg PO Q12H, 13 consecutive days): 80%; decrease of mean tumor volume compared to vehicle-treated group (GTL16 tumors; 30 mg/kg PO Q12H, 13 consecutive days): 87%
